From US6653258B1 (priority 1987, dated 2003)

How the values were obtained:
various species of plant = test: Plant growth regulating whole plant screen (Table VIII); assay type: in vivo; settings: 4000 ppm (4 kg/ha) spray, assessed after 2-6 weeks
Procedure: This Example illustrates the plant growth regulating properties of compounds 1, 23 and 68 of Table I when tested on a whole plant screen against various species of plant. The plant species are identified in Table VII with the leaf stage at which they are sprayed.
A formulation of each chemical was applied at 4000 ppm (4 kg/ha in a 1000 l/ha field volume) using a tracksprayer and a SS8004E (Teejet) nozzle.
After spraying the plants were grown in a glasshouse with 25° C. day/22° C. night temperature. Supplementary lighting was supplied when necessary to provide an average photoperiod of 16 hours (14 hours minimum).
After 2-6 weeks in the glasshouse, depending on species and time of year, the plants were visually assessed for morphological characteristics against a control of plant sprayed with a blank formulation.

Erysiphe graminis = test: Foliar fungal disease test on Erysiphe graminis, plants inoculated 24 hours before treatment (Table V); assay type: in vivo; parameters: key: 4: no disease; 3: trace −5% of disease on untreated plants; 6-25% of disease on untreated plants; 1: 26-59% of disease on untreated plants; 60-100% of disease on untreated plants; settings: plants inoculated 24 hours before treatment
[1] = tested on: foliar fungal diseases of plants; assay type: in vivo; parameters: key to disease control grading, […] (VINE): 4: no disease; 3: trace −5% of disease on untreated plants; key to disease control grading, PUCCINIA RECONDITA (WHEAT) / disease control grading, VENTURIA INAEQUALIS (APPLE) / disease control grading, CERCOSPORA ARACHIDICOLA (PEANUT) / disease control grading, PH[…] (TOMATO) / disease control grading, P[…] (RICE): 4: no disease; 3: trace −5% of disease on untreated plants; 6-25% of disease on untreated plants; 1: 26-59% of disease on untreated plants; 60-100% of disease on untreated plants; settings: applied to soil (roots) and foliage one or two days before inoculation; for disease control grading, CERCOSPORA ARACHIDICOLA (PEANUT): Cercospora arachidicola on peanut; for disease control grading, P[…] (RICE): P[…] on rice; for disease control grading, PH[…] (TOMATO): Ph[…] on tomato; for disease control grading, PUCCINIA RECONDITA (WHEAT): Puccinia recondita on wheat; for disease control grading, VENTURIA INAEQUALIS (APPLE): Venturia inaequalis on apple; for disease control grading, […] (VINE): […] on vine
[2] = tested on: Peanut plants, cv. Tomnut; test: Phytotoxicity on peanut plants, root drench (Table VI); assay type: in vivo; settings: for phytotoxicity, linear 0-5 scale, Peanut: 100 ppm root drench, assessed one week after treatment, four replicates
Procedure: Peanut plants, cv. Tomnut, were propagated in John Innes No. 1 compost. […] Uniform, 8-10 day-old plants were selected for the experiments.
Phytotoxicity was assessed on a linear 0- 5 scale where grade 1 ═slight damage and grade 5 ═dead plant.

[3] = tested on: Tomato plants, cv. Outdoor Girl; test: Phytotoxicity on tomato plants, spray to maximum retention (Table VII); settings: for phytotoxicity, linear 0-5 scale, Tomato: assessed one week after treatment, four replicates
[4] = 30 ppm spray to maximum retention
[5] = 100 ppm spray to maximum retention
[6] = 300 ppm spray to maximum retention

Structure (SMILES)	A = Apical damage (various species of plant; Tomato (TO, Ailsa Craig))	P = Phytotoxicity (various species of plant; Tomato (TO, Ailsa Craig))	R = Retardation (various species of plant; Tomato (TO, Ailsa Craig))	disease control grading, ERYSIPHE GRAMINIS (BARLEY) (Erysiphe graminis)	disease control grading, CERCOSPORA ARACHIDICOLA (PEANUT) [1]	disease control grading, P[…] (RICE) [1]	disease control grading, PH[…] (TOMATO) [1]	disease control grading, PUCCINIA RECONDITA (WHEAT) [1]	disease control grading, VENTURIA INAEQUALIS (APPLE) [1]	disease control grading, […] (VINE) [1]	phytotoxicity, linear 0-5 scale, Peanut [2]	phytotoxicity, linear 0-5 scale, Tomato [3, 4]	phytotoxicity, linear 0-5 scale, Tomato [3, 5]	phytotoxicity, linear 0-5 scale, Tomato [3, 6]	further results
CO/C=C(/C(=O)OC)c1ccccc1COc1cccc(Cl)c1 [1 (Table I)]	3 (3 = 61-100%)	2 (2 = 11-30%)	3 (3 = 61-100%)	4	4	4	4	4	4	4	–	–	–	–	G = Greening effect (various species of plant; Maize (MZ, Earliking)): 1 (1 = 10-30%); I = Interligular or internodal length reduction (various species of plant; Maize (MZ, Earliking)): 1 (1 = 10-30%); R = Retardation (various species of plant; Maize (MZ, Earliking)): 1 (1 = 10-30%); T = Tillering or side shooting (various species of plant; Tomato (TO, Ailsa Craig)): 1 (1 = 10-30%)
CO/C=C(/C(=O)OC)c1ccccc1COc1ccc(Cl)cc1 [Compound 23, Table I]	–	–	–	–	–	–	–	–	–	–	0.13	0.3	1.5	2.3	–
CO/C=C(/C(=O)OC)c1ccccc1COc1cccc(Cl)c1 [Compound 1, Table I]	–	–	–	–	–	–	–	–	–	–	0	0.75	0.63	1.5	–
CO/C=C(/C(=O)OC)c1ccccc1COc1ccc(Cl)cc1 [23 (Table I)]	3 (3 = 61-100%)	3 (3 = 31-50%)	3 (3 = 61-100%)	4	4	4	4	4	4	4	–	–	–	–	–
CO/C=C(/C(=O)OC)c1ccccc1COc1ccccc1 [comparative compound, reference compound]	–	–	–	–	–	–	–	–	–	–	1.5	2.8	3.4	3.0	–
CO/C=C(/C(=O)OC)c1ccccc1COc1cccc(Cl)c1 [Compound No. 1 of Table I, (E)-methyl 2-[2-(3-chlorophenoxymethyl)phenyl]-3-methoxypropenoate]	–	–	–	–	–	–	–	–	–	–	–	–	–	–	phytotoxicity relative to the unsubstituted comparative compound ([2]; root drench, assessed one week after treatment (conclusion from Table VI)): less phytotoxic; phytotoxicity relative to the unsubstituted comparative compound ([3]; sprayed to maximum retention, assessed one week after (final) treatment (conclusion from Table VII)): less phytotoxic
